According to patent US8853196B2, “Aminochromane, aminothiochromane and amino-1,2,3,4-tetrahydroquinoline derivatives, pharmaceutical compositions containing them, and their use in therapy” (AbbVie Deutschland GmbH & Co. KG, priority 2011, dated 2014):
Structures can show the parent of a compound that is named as a salt.

The compounds below were run against T1, human GlyT1c transporter (Homo sapiens, UniProt P48067) (assay: Radioligand binding assay using recombinant CHO cell membranes expressing human GlyT1). Details: values given as upper bounds, read-out: radioligand binding Kiapp.
T1 construct: expressed in transfected cells; host or cells: CHO cells (recombinant; membranes)
T1 sequence (P48067 1-706): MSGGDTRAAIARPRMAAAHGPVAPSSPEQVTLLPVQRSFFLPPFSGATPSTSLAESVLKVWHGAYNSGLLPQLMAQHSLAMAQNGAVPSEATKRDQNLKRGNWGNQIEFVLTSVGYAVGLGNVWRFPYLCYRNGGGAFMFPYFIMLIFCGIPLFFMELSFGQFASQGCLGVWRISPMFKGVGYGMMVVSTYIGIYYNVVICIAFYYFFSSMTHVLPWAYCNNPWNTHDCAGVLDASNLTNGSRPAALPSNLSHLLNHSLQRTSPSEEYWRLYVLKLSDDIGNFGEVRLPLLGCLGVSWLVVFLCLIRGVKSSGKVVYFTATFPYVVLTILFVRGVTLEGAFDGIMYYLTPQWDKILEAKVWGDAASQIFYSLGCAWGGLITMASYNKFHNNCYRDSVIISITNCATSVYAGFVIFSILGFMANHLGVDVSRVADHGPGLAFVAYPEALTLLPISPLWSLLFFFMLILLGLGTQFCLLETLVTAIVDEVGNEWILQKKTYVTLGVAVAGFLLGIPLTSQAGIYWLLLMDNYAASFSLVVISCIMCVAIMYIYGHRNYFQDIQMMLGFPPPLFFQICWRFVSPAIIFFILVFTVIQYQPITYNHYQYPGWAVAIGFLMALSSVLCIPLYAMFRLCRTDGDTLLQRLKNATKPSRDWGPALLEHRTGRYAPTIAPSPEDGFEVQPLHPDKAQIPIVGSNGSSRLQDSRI
Experimental: 2. Radioligand Binding Assays Using Recombinant CHO Cell Membranes Expressing Human GlyT1:
Radioligand binding to human GlyT1c transporter-expressing membranes was determined as described in Mezler et al., Molecular Pharmacology 74:1705-1715, 2008.

Row | Ki [µM] | Structure (SMILES)
1 | ≤ 1 | N[C@@H]1COc2ccc(CNS(=O)(=O)C3CCC3)cc2[C@H]1Cc1ccccc1 (relative stereo) [Example 70, trans-Cyclobutanesulfonic acid (-3-amino-4-benzyl-chroman-6-ylmethyl)-amide]
2 | ≤ 0.1 | CCCS(=O)(=O)NCc1ccc2c(c1)[C@H](Cc1ccccc1)[C@H](N)CO2 (relative stereo) [Example 71, cis-Propane-1-sulfonic acid (-3-amino-4-benzyl-chroman-6-ylmethyl)-amide]
3 | ≤ 0.1 | CCCS(=O)(=O)NCc1ccc2c(c1)[C@@H](Cc1ccccc1)[C@H](N)CO2 (relative stereo) [Example 72, trans-Propane-1-sulfonic acid (-3-amino-4-benzyl-chroman-6-ylmethyl)-amide]
4 | ≤ 1 | CCS(=O)(=O)NCCOc1ccc2c(c1)[C@@H](Cc1ccccc1)[C@H](NC)C(C)(C)O2 (relative stereo) [Example 73, trans-Ethanesulfonic acid [2-(-4-benzyl-2,2-dimethyl-3-methylamino-chroman-6-yloxy)-ethyl]-amide]
5 | ≤ 1 | CCCS(=O)(=O)NCCOc1ccc2c(c1)[C@H](Cc1ccccc1)[C@H](NC)C(C)(C)O2 (relative stereo) [Example 74, cis-Propane-1-sulfonic acid [2-(-4-benzyl-2,2-dimethyl-3-methylamino-chroman-6-yloxy)-ethyl]-amide]
6 | ≤ 1 | CCCS(=O)(=O)NCCOc1ccc2c(c1)[C@@H](Cc1ccccc1)[C@H](NC)C(C)(C)O2 (relative stereo) [Example 75, trans-Propane-1-sulfonic acid (2-(-4-benzyl-2,2-dimethyl-3-methylamino-chroman-6-yloxy)-ethyl]-amide]
7 | ≤ 1 | CN[C@H]1[C@@H](Cc2ccccc2)c2cc(OCCNS(=O)(=O)CC3CC3)ccc2OC1(C)C (relative stereo) [Example 76, cis-N-[2-(-4-Benzyl-2,2-dimethyl-3-methylamino-chroman-6-yloxy)-ethyl]-C-cyclopropyl-methanesulfonamide]
8 | ≤ 1 | CN[C@H]1[C@H](Cc2ccccc2)c2cc(OCCNS(=O)(=O)CC3CC3)ccc2OC1(C)C (relative stereo) [Example 77, trans-N-[2-(-4-Benzyl-2,2-dimethyl-3-methylamino-chroman-6-yloxy)-ethyl]-C-cyclopropyl-methanesulfonamide]
9 | ≤ 0.1 | CCS(=O)(=O)NCc1ccc2c(c1)C(Cc1ccccc1)C(NC)CO2 (single isomer, unassigned; isomer 2) [Example 79, cis-N-{[4-Benzyl-3-(methyl-amino)-3,4-dihydro-2H-chromen-6-yl]methy}ethane-sulfonamide. (Isomer 2)]
10 | ≤ 0.01 | Cn1cnc(S(=O)(=O)NCCOc2ccc3c(c2)C(Cc2ccccc2)C(N2CCC2)CO3)c1 (single isomer, unassigned; isomer 2) [Example 80, cis-1-Methyl-1H-imidazole-4-sulfonic acid [2-(3-azetidin-1-yl-4-benzyl-chroman-6-yloxy)-ethyl]-amide. (Isomer 2)]
11 | ≤ 1 | CCS(=O)(=O)NCc1ccc2c(c1)C(Cc1ccccc1)C(N1CCC1)CO2 (centres unmarked) [Example 19, Ethanesulfonic acid (3-azetidin-1-yl-4-benzyl-chroman-6-ylmethyl)-amide; trifluoro-acetic acid salt]
12 | ≤ 0.1 | CCCS(=O)(=O)NCc1ccc2c(c1)C(Cc1ccccc1)C(N1CCC1)CO2 (centres unmarked) [Example 20, Propane-1-sulfonic acid (3-azetidin-1-yl-4-benzyl-chroman-6-ylmethyl)-amide; trifluoro-acetic acid salt]
13 | ≤ 0.1 | O=S(=O)(CC1CC1)NCc1ccc2c(c1)C(Cc1ccccc1)C(N1CCC1)CO2 (centres unmarked) [Example 21, N-(3-Azetidin-1-yl-4-benzyl-chroman-6-ylmethyl)-C-cyclopropyl-methane-sulfonamide; trifluoro-acetic acid salt]
14 | ≤ 1 | CC1CCCN(S(=O)(=O)NCc2ccc3c(c2)C(Cc2ccccc2)C(N)CO3)C1 (centres unmarked) [Example 43, 3-Methyl-piperidine-1-sulfonic acid (3-amino-4-benzyl-chroman-6-ylmethyl)-amide 2,2,2-trifluoroacetate]
15 | ≤ 10 | NC1COc2ccc(CNS(=O)(=O)N3CCOCC3)cc2C1Cc1ccccc1 (centres unmarked) [Example 44, Morpholine-4-sulfonic acid (3-amino-4-benzyl-chroman-6-ylmethyl)-amide 2,2,2-trifluoroacetate]
16 | ≤ 10 | Cc1nn(C)cc1S(=O)(=O)NCc1ccc2c(c1)C(Cc1ccccc1)C(N)CO2 (centres unmarked) [Example 45, 1,3-Dimethyl-1H-pyrazole-4-sulfonic acid (3-amino-4-benzyl-chroman-6-ylmethyl)-amide 2,2,2-trifluoroacetate]
17 | ≤ 1 | Cn1ccc(S(=O)(=O)NCc2ccc3c(c2)C(Cc2ccccc2)C(N)CO3)n1 (centres unmarked) [Example 46, 1-Methyl-1H-pyrazole-3-sulfonic acid (3-amino-4-benzyl-chroman-6-ylmethyl)-amide 2,2,2-trifluoroacetate]
18 | ≤ 0.1 | CCC(C)S(=O)(=O)NCc1ccc2c(c1)C(Cc1ccccc1)C(N)CO2 (centres unmarked) [Example 47, Butane-2-sulfonic acid (3-amino-4-benzyl-chroman-6-ylmethyl)-amide 2,2,2-trifluoroacetate]
19 | ≤ 1 | CC(C)S(=O)(=O)NCc1ccc2c(c1)C(Cc1ccccc1)C(N)CO2 (centres unmarked) [Example 48, Propane-2-sulfonic acid (3-amino-4-benzyl-chroman-6-ylmethyl)-amide 2,2,2-trifluoroacetate]
20 | ≤ 1 | NC1COc2ccc(CNS(=O)(=O)c3ccsc3)cc2C1Cc1ccccc1 (centres unmarked) [Example 49, Thiophene-3-sulfonic acid (3-amino-4-benzyl-chroman-6-ylmethyl)-amide 2,2,2-trifluoroacetate]
21 | ≤ 0.1 | Cc1cc(S(=O)(=O)NCc2ccc3c(c2)C(Cc2ccccc2)C(N)CO3)c(C)o1 (centres unmarked) [Example 50, 2,5-Dimethyl-furan-3-sulfonic acid (3-amino-4-benzyl-chroman-6-ylmethyl)-amide 2,2,2-trifluoroacetate]
22 | ≤ 10 | CC(C)CS(=O)(=O)NCc1ccc2c(c1)C(Cc1ccccc1)C(N)CO2 (centres unmarked) [Example 51, 2-Methyl-propane-1-sulfonic acid (3-amino-4-benzyl-chroman-6-ylmethyl)-amide 2,2,2-trifluoroacetate]
23 | ≤ 1 | Cc1ccc(S(=O)(=O)NCc2ccc3c(c2)C(Cc2ccccc2)C(N)CO3)o1 (centres unmarked) [Example 52, 5-Methyl-furan-2-sulfonic acid (3-amino-4-benzyl-chroman-6-ylmethyl)-amide 2,2,2-trifluoroacetate]
24 | ≤ 1 | Cc1ccc(S(=O)(=O)NCc2ccc3c(c2)C(Cc2ccccc2)C(N)CO3)s1 (centres unmarked) [Example 53, 5-Methyl-thiophene-2-sulfonic acid (3-amino-4-benzyl-chroman-6-ylmethyl)-amide 2,2,2-trifluoroacetate]
25 | ≤ 0.1 | NC1COc2ccc(CNS(=O)(=O)c3ccoc3)cc2C1Cc1ccccc1 (centres unmarked) [Example 54, Furan-3-sulfonic acid (3-amino-4-benzyl-chroman-6-ylmethyl)-amide 2,2,2-trifluoroacetate]
26 | ≤ 10 | Cc1cc(S(=O)(=O)NCc2ccc3c(c2)C(Cc2ccccc2)C(N)CO3)n(C)n1 (centres unmarked) [Example 55, 2,5-Dimethyl-2H-pyrazole-3-sulfonic acid (3-amino-4-benzyl-chroman-6-ylmethyl)-amide 2,2,2-trifluoroacetate]
